Data on 3 compounds can be found in article PMC4373589 (Journal of medicinal chemistry, 2013).

The term Ki denotes a measure of affinity in units of concentration, obtained from inhibition or displacement. As usually defined, the EC50 is the midpoint of the concentration-response curve. A high value points to a less potent agent.

One data set has as its system antinociception. As to the kind of experiment: Warm-water tail flick assay, acute agonist effect. The note with it: up to 30 mg/kg dose; s.c.
A further data set concerns the target mu opioid receptor (MOR) (Mus musculus, UniProt P42866). Put plainly: MOR competitive radioligand binding. Set-up: species or system mice.
In the next data set the test system is morphine dependent mice. As to the kind of experiment: Opioid withdrawal assay in morphine-pelleted mice. It counts as in vivo. The note with it: for Precipitated withdrawal symptoms, overall comparison: morphine-pelleted mice, s.c.
Data set [1] concerns the target T1, kappa opioid receptor (KOR) (Mus musculus, UniProt P33534). Put plainly: KOR [35S]-GTPγS binding assay. (In general: GTPγS is a poorly hydrolysed GTP analogue; its binding reports G protein activation.)
Data set [2] has as its target T2, delta opioid receptor (DOR) (Mus musculus, UniProt P32300). As to the kind of experiment: DOR competitive radioligand binding. Set-up: species or system mice.
Data set [3] addresses T1, kappa opioid receptor (KOR). As to the kind of experiment: biochemical. It counts as binding, mice.
Data set [4] deals with T2, delta opioid receptor (DOR). Put plainly: DOR [35S]-GTPγS binding assay.
For the next data set, the system named is KOR. The note with it: cited from earlier work.
The test system of another data set is morphine antinociception. As to the kind of experiment: Warm-water tail flick assay, antagonism of morphine antinociception. In kind it is in vivo. The note with it: antagonizing morphine (10 mg/kg) antinociception; s.c.; six mice. In general terms: Hot-plate and tail-flick tests time the reaction to a heat stimulus.
The mark [5] stands for this setting: increasing dose up to 30 mg/kg s.c.

T1 sequence (P33534 whole entry): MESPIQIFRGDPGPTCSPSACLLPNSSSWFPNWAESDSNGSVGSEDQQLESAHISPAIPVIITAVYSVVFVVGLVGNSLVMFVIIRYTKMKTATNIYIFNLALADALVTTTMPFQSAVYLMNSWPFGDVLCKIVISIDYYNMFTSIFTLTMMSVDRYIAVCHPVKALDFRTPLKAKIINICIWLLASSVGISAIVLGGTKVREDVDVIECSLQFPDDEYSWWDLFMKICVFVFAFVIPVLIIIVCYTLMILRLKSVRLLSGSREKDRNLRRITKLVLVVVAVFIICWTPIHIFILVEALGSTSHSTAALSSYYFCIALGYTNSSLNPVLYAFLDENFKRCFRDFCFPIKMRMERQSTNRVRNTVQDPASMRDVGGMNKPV
T2 sequence (P32300 whole entry): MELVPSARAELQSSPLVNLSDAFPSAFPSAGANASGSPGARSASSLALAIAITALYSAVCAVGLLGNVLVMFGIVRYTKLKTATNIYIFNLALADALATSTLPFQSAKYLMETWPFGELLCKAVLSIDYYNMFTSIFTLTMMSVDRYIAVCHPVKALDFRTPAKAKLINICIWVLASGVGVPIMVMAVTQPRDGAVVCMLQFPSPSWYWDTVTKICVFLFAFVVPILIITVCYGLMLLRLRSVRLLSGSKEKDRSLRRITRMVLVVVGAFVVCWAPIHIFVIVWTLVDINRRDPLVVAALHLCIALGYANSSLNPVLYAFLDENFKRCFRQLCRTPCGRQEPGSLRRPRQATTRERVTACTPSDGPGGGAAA
Chain of mu opioid receptor (MOR) (P42866 whole entry): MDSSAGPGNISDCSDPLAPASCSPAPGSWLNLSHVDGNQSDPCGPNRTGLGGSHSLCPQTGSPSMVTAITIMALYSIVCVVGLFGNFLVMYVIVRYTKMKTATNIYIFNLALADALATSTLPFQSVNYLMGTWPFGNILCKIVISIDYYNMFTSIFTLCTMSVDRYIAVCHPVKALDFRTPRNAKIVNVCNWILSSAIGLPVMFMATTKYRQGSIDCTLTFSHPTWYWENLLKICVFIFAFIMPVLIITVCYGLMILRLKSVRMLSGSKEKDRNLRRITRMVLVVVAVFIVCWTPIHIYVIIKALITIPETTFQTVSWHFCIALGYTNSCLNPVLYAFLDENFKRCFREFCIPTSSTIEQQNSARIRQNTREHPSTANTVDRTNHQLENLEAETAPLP

Consider `O=C(N[C@@]12CCC(=O)[C@@H]3Oc4c(O)ccc5c4[C@@]31CCN(CC1CC1)[C@@H]2C5)c1cc2ccccc2cn1` [Compound 14, 17-cyclopropylmethyl-4,5α-epoxy-3-hydroxy-14β-N-[(3’-isoquinolyl)carboxamido]-morphinan-6-one], for which the “Agonist effect in tail flick assay” value in the data set on antinociception is “None of the compounds produced any significant agonist effect”. Moreover, the Ki at mu opioid receptor (MOR) was 3.5 ± 1.87 nM; in [2], 25.1 ± 1.8 nM; in data set [3] it was 0.27 ± 0.02 nM. Besides, the “Wet dog shakes at 30 mg/kg” value in the data set with morphine dependent mice (30 mg/kg s.c., compared with 1 mg/kg naloxone and naltrexone) was “resembled the effect of 1 mg/kg naloxone and naltrexone”. For the same compound, the “Escape jumps, effect of dose” value in the data set with morphine dependent mice (setting [5]) was “no significant dose-response effect”. Also, in the data set with morphine dependent mice (setting [5]), the “Wet dog shakes, effect of dose” value was “dose-response increasing effect”. In the data set with morphine dependent mice, the “Precipitated withdrawal symptoms, overall comparison” value is given as “behaved similarly to naltrexone”. In addition, the EC50 in data set [1] was found to be 2.75 ± 0.71 nM; in [4], 14.2 ± 1.9 nM.
Turning to `Oc1cccc2c1O[C@H]1CCC[C@H]3CN(CC4CC4)CC[C@@]231` [LTC-274, (-)-3-cyclopropylmethyl-2,3,4,4α,5,6,7,7α-octahydro-1H-benzofuro[3,2-e]isoquinolin-9-ol], in the data set on KOR, the “Emax (KOR partial agonist)” value was 23%.
In the case of `C=CCN1CC[C@]23c4c5ccc(O)c4O[C@H]2C(=O)CC[C@@]3(O)[C@H]1C5` [Naloxone, naloxone, reference compound], the “AD50 values (mg/kg (95% CL))” value with morphine antinociception is 0.05 (0.03-0.09) mg/kg. The “Precipitated withdrawal symptoms, overall comparison” value with morphine dependent mice is listed as “even more significant syndrome”.
